# Measured values from ChEMBL document CHEMBL4261565, “A systematic analysis of atomic protein-ligand interactions in the PDB” (Medchemcomm, 2017).
# Target: Coagulation factor X (Homo sapiens, UniProt P00742)
# Test: Inhibition of human factor 10a using […] as substrate by spectrophotometric method
# Coagulation factor X, sequence (P00742 41-179 limits assumed): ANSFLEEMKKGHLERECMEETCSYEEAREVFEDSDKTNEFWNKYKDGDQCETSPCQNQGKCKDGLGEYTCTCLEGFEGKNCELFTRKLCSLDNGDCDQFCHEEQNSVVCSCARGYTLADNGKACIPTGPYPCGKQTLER
# Coagulation factor X, sequence (P00742 235-488 limits assumed): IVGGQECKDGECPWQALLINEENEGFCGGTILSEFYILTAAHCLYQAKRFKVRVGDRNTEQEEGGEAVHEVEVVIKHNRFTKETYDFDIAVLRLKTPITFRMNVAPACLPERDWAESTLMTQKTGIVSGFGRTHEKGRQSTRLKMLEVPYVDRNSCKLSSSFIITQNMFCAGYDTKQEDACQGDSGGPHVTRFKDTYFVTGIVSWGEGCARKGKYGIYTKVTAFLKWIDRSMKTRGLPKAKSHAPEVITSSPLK
row,SMILES,Ki
1,CNCCCN1C(=O)[C@@H]2[C@H](C1=O)[C@H](c1cc(-c3ccc(Cl)s3)on1)N1CCC[C@@H]21 (racemic),911 nM
2,NCCCN1C(=O)[C@@H]2[C@H](C1=O)[C@H](c1cc(-c3ccc(Cl)s3)on1)N1CCC[C@@H]21 (racemic),9800 nM
3,CC(C)(C)CCCN1C(=O)[C@@H]2[C@H](C1=O)[C@H](c1cc(-c3ccc(Cl)s3)on1)N1CCC[C@@H]21 (racemic),550 nM

# Now those with a lower Ki, led by results:
row,Ki,SMILES
1,9 nM,C[N+](C)(C)CCCN1C(=O)[C@@H]2[C@H](C1=O)[C@H](c1cc(-c3ccc(Cl)s3)on1)N1CCC[C@@H]21 (racemic)
2,56 nM,CN(C)CCCN1C(=O)[C@@H]2[C@H](C1=O)[C@H](c1cc(-c3ccc(Cl)s3)on1)N1CCC[C@@H]21 (racemic)
